The results in this text go back to ChEMBL document CHEMBL3870355, “Biological Evaluation in Vitro and in Silico of Azetidin-2-one Derivatives as Potential Anticancer Agents” (ACS Med Chem Lett, 2017).

Calls of active or inactive are those of the source. No cut-off for these calls is given here.

Data set [1] is described as follows: Cytotoxicity against mouse B16F10 cells by MTT assay. The conditions noted are these: B16-F10. The format is functional, cell-based. In general terms: Tetrazolium assays rely on reduction of a dye to a coloured formazan, in cell work by metabolically active cells.
The nature of data set [2]: Cytotoxicity against human Chang cells by MTT assay. The format is toxicity, cell-based.
Data set [3] can be described thus: Cytotoxicity against human SiHa cells by MTT assay. The format is functional, cell-based.
Data set [4] has as its system B16-F10. Briefly: Induction of apoptosis in mouse B16F10 cells assessed as formation of organized shedding vesicles by microscopic analysis. The format is functional, cell-based.
Data set [5] relates to B16-F10. Description: Induction of apoptosis in mouse B16F10 cells assessed as caspase-3 activation using Ac-DEVD-pNA as substrate by spectrophotometric analysis. The format is functional.
Data set [6] concerns B16-F10. Description: Induction of changes in cell death related gene expression in mouse B16F10 cells by GenArise analysis. The format is functional, cell-based.
The test system of data set [7] is B16-F10. Description: Effect on tubulin gene expression in mouse B16F10 cells by GenArise analysis. The format is functional, cell-based.
In data set [8] the test system is B16-F10. Briefly: Induction of changes in cytoskeleton and cell division processes related gene expression in mouse B16F10 cells by GenArise analysis. The format is functional, cell-based.

Regarding `O=C1C(Oc2ccccc2)C(c2ccc([N+](=O)[O-])cc2)N1c1nc2ccccc2s1` (racemic), the IC50 (in general, the concentration that gives 50% inhibition) was determined as 450 nM in data set [1], 70 nM in data set [2] and 120 nM in data set [3].

As for `O=C1C(Oc2ccccc2)C(c2ccncc2)N1c1nc2ccccc2s1` (racemic), the values for the IC50 in data set [1], in data set [2] and in data set [3] were 1700 nM, 1030 nM and 1340 nM, respectively.

Regarding `COc1ccc([C@@H]2[C@H](Oc3ccccc3)C(=O)N2c2ccc(OC)cc2)cc1` (relative stereo), the IC50 was 9700 nM in data set [1], 630 nM in data set [2] and 420 nM in data set [3].

For the compound `COc1cc([C@@H]2c3cc4c(cc3[C@H](O)[C@H]3COC(=O)[C@H]23)OCO4)cc(OC)c1OC` [PODOFILOX], the result in the data set on B16-F10 [4] was Active. In addition, the Activity in the data set with B16-F10 [5] is 100%.

In the case of `COc1ccc(N2C(=O)[C@@H](Oc3ccccc3)[C@H]2c2ccc([N+](=O)[O-])cc2)cc1` (relative stereo), the IC50 in data set [1] is 870 nM; in data set [2], 2080 nM; in data set [3] it was 3640 nM.

Regarding `COc1ccc(N2C(=O)[C@@H](OC)[C@H]2c2ccc(C)cc2)cc1` (relative stereo), the IC50 in data set [1] turned out to be 4120 nM; in data set [2] it was 3920 nM; in data set [3], 730 nM.

As to `COc1ccc(N2C(=O)[C@@H](OC)[C@H]2c2ccc([N+](=O)[O-])cc2)cc1` (relative stereo), the Activity with B16-F10 [5] was determined as 88%. Further, the figures for the IC50 in data set [1], in data set [2] and in data set [3] were 2080 nM, > 10000 nM and 8130 nM, respectively.

Take `COc1ccc(N2C(=O)[C@@H](Oc3ccccc3)[C@H]2c2ccc(C)cc2)cc1` (relative stereo): the outcome in the data set on B16-F10 [4], in the data set on B16-F10 [6], with B16-F10 [7] and with B16-F10 [8] was Active. In addition, the Activity with B16-F10 [5] was 100%. Further, the figures for the IC50 in data set [1], in data set [2] and in data set [3] were 1210 nM, > 10000 nM and 70 nM, respectively.

In the case of `COc1ccc(N2C(=O)[C@@H](Oc3ccccc3)[C@H]2c2ccccc2[N+](=O)[O-])cc1`, the half-inhibitory concentration (IC50) was 4820 nM in data set [1], 3730 nM in data set [2] and 220 nM in data set [3].

Consider `COc1ccc(N2C(=O)[C@@H](Oc3ccccc3)[C@H]2c2ccc(F)cc2)cc1` (relative stereo), for which the IC50 was 3260 nM in data set [1], 740 nM in data set [2] and 80 nM in data set [3].

Consider `O=C1C(Oc2ccccc2)C(c2ccco2)N1c1nc2ccccc2s1` (racemic), for which, in the data set with B16-F10 [5], the Activity is listed as 93%. In addition, the IC50 was found to be 340 nM in data set [1], 17 nM in data set [2] and 330 nM in data set [3].

As to `COc1ccc(N2C(=O)[C@@H](OC)[C@H]2c2ccc(F)cc2)cc1` (relative stereo), the IC50 was 2820 nM in data set [1], 7570 nM in data set [2] and 2890 nM in data set [3].

As for `COc1ccc([C@@H]2[C@H](OC)C(=O)N2c2ccc(OC)cc2)cc1` (relative stereo), the results for the IC50 in data set [1], in data set [2] and in data set [3] were 2050 nM, 8380 nM and 6360 nM, respectively.

As to `COc1ccc(N2C(=O)[C@@H](OC)[C@H]2c2ccccc2[N+](=O)[O-])cc1` (relative stereo), the IC50 in data set [1] stood at 2910 nM; in data set [2], 9750 nM; in data set [3], 7290 nM.

On to `COc1ccc(N2C(=O)[C@@H](Oc3ccccc3)[C@H]2c2ccccc2)cc1` (relative stereo), for which the IC50 in data set [1] is 280 nM; in data set [2] it was 2850 nM; in data set [3], 200 nM.

On to `CC[C@]1(O)C[C@H]2CN(CCc3c([nH]c4ccccc34)[C@@](C(=O)OC)(c3cc4c(cc3OC)N(C=O)[C@H]3[C@@](O)(C(=O)OC)[C@H](OC(C)=O)[C@]5(CC)C=CCN6CC[C@]43[C@@H]65)C2)C1` [VINCRISTINE], for which the IC50 in data set [1], in data set [2] and in data set [3] was 10 nM throughout.

For `O=C1C(Oc2ccccc2)C(c2ccc(Cl)cc2)N1c1nc2ccccc2s1` (racemic), the IC50 in data set [1] stood at 310 nM; in data set [2], 230 nM; in data set [3], 90 nM.

Regarding `COc1ccc(N2C(=O)[C@@H](OC)[C@H]2c2ccc(Cl)cc2)cc1` (relative stereo), the IC50 in data set [1] is > 10000 nM; in data set [2] it was 3410 nM; in data set [3], 8610 nM.
